Measurements taken from US20230114241A1, “METHODS OF TREATING EPILEPSY USING THE SAME” (Trevena, Inc., priority 2019, published 2023).

Experiments:
[1] = biological target: T1, human sphingosine-1-phosphate receptor 1 (S1P1) (Homo sapiens, UniProt P21453); assay: Inhibition of cAMP production (HTRF cAMP HiRange), S1P1 CHO-K1 cells; format: cell-based; settings: for Emax: CHO-K1, efficacy normalized to maximum efficacy of fingolimod, read-out: hS1P1 CAMP SPAN; for EC50: read-out: hS1P1 CAMP pEC50 (converted)
In short: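 Intracellular cAMP changes read by TR-FRET (HTRF HiRange, 1 h room temperature) after 30 min compound exposure at 37 °C. Cells: overnight-plated CHO-K1 stably expressing tagged human S1P1 with EA-β-arrestin2. Responses normalized to fingolimod.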
Target sequence in this assay (P21453 whole entry): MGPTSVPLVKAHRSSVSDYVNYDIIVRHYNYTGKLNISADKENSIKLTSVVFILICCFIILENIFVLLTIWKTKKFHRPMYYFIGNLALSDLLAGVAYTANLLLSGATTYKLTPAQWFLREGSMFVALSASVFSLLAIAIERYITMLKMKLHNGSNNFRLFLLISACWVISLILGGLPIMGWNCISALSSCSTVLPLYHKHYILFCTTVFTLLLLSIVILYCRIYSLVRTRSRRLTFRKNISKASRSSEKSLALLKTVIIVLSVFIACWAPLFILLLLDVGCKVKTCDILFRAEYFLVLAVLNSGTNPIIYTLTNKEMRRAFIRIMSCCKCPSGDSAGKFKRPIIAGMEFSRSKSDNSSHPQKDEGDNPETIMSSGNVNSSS

[2] = biological target: T1, human sphingosine-1-phosphate receptor 1 (S1P1); assay: β-Arrestin2 recruitment assay (PathHunter), S1P1 CHO-K1 cells; format: cell-based; settings: for Emax: efficacy normalized to maximum efficacy of fingolimod, read-out: hS1P1 B-arrestin2 SPAN; for EC50: read-out: hS1P1 B-arrestin2 pEC50 (converted)
In short: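 Agonist-driven β-arrestin2 recruitment measured by β-galactosidase complementation after 60 min compound exposure at 37 °C and 1 h detection at room temperature. Cells: stable CHO-K1 line expressing tagged human S1P1 with EA-β-arrestin2, plated the night before. Data expressed relative to fingolimod.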
Target sequence in this assay (P21453 whole entry): as above
Target sequence in this assay (P32121 whole entry partner): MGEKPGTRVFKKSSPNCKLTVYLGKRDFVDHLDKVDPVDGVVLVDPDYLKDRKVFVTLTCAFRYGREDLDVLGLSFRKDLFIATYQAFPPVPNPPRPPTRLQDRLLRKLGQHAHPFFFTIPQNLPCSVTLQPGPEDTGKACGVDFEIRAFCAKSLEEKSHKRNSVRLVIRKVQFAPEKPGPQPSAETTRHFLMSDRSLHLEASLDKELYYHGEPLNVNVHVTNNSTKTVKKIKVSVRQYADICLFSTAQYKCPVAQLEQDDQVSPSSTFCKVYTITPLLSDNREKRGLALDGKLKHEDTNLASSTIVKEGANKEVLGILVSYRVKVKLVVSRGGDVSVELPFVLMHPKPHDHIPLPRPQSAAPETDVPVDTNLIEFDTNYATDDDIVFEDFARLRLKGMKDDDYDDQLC

[3] = inhibition of cAMP production, S1P1
[4] = inhibition of cAMP production, potency
[5] = CHO-K1, β-arrestin2 recruitment
[6] = β-arrestin2 recruitment, potency

SMILES | Emax [1] [%] | EC50 [1, 3] [nM] | Emax ([2]; CHO-K1) [%] | EC50 ([2]; β-arrestin2 recruitment, S1P1) [nM] | Emax ([1]; inhibition of cAMP production) [%] | EC50 [1, 4] [nM] | Emax [2, 5] [%] | EC50 [2, 6] [nM] | hS1P1 B-arrestin2 pEC50 ([2]; β-arrestin2 recruitment, S1P1)
O=C1c2cc(-c3nc(-c4cccnc4)no3)ccc2OC(CO)(CO)C1Br (stereo not drawn) [Compound 479, 3-bromo-2,2-bis(hydroxy-methyl)-6-[3-(pyridin-3-yl)-1,2,4-oxadiazol-5-yl]-3,4-dihydro-2H-1-benzopyran-4-one] | < 75 | > 316 | < 75 | > 10000 |  |  |  |  | 
CC(C)Nc1ccc(-c2nc(-c3ccc4c(c3)C(=O)NCC4)no2)cc1C#N [Compound 514, 2-(isopropylamino)-5-(3-(l-oxo-1,2,3,4-tetra-hydroisoquinolin-7-yl)-1,2,4-oxadiazol-5-yl)benzonitrile] | > 75 | < 316 | < 75 | < 10000 |  |  |  |  | 
CC(C)n1nnc2cc(-c3ncc(-c4ccccc4Br)s3)ccc21 [Compound 220, 5-(2-bromophenyl)-2-(1-isopropylbenzo-triazol-5-yl)thiazole] |  |  |  |  | < 75 | > 316 | < 75 | > 10000 | 
CC(C)n1nnc2cc(-c3noc(C45CC6CC(CC(C6)C4)C5)n3)ccc21 [Compound 200, 5-[5-(adamantan-1-yl)-1,2,4-oxadiazol-3-yl]-1-(propan-2-yl)-1H-1,2,3-benzotriazole] |  |  |  |  | < 75 | > 316 | < 75 | > 10000 | 
COc1ccc(-c2noc(-c3ccc4c(c3)nnn4CC(C)(C)O)n2)c(C)c1 [Compound 647, 1-{5-[3-(4-methoxy-2-methylphenyl)-1,2,4-oxadiazol-5-yl]-1H-1,2,3-benzotriazol-1-yl}-2-methylpropan-2-ol] |  | < 316 |  |  |  |  |  |  | >5
CC(C)Nc1ccc(-c2nnc(-c3cccc4[nH]cnc34)o2)cc1C#N [Compound 585, 5-[5-(1H-1,3-benzo-diazol-4-yl)-1,3,4-oxadiazol-2-yl]-2-[(propan-2-yl)amino]benzonitrile] | > 75 | < 316 | > 75 | < 10000 |  |  |  |  | 
CC(C)n1ccc2cc(-c3noc(-c4ccncc4)n3)ccc21 [Compound 395, 3-(1-isopropyl-1H-indol-5-yl)-5-(pyridin-4-yl)-1,2,4-oxadiazole] | < 75 | < 316 | > 75 | < 10000 |  |  |  |  | 
Cc1ccccc1-c1nc(-c2ccc3c(c2)nnn3CC(C)(C)CO)no1 [Compound 505, 2,2-dimethyl-3-(5-(5-(o-tolyl)-1,2,4-oxadiazol-3-yl)-1H-benzo[d][1,2,3]triazol-1-yl)propan-1-ol] | < 75 | > 316 | > 75 | > 10000 |  |  |  |  | 
CCC1(CC)CC(=O)c2cc(-c3nc(-c4cncc(N)c4)no3)ccc2O1 [Compound 502, 6-(3-(5-aminopyridin-3-yl)-1,2,4-oxadiazol-5-yl)-2,2-diethylchroman-4-one] | > 75 | < 316 | > 75 | < 10000 |  |  |  |  | 
CCC1(CC)CC(=O)c2cc(-c3nc(-c4ccn[nH]4)no3)ccc2O1 [Compound 470, 6-(3-(1H-pyrazol-5-yl)-1,2,4-oxadiazol-5-yl)-2,2-diethyl-chroman-4-one] | > 75 | > 316 | > 75 | > 10000 |  |  |  |  | 
CCC1CC(=O)c2ccc(-c3nc(-c4ccncc4)no3)cc2O1 (stereo not drawn) [Compound 589, 2-ethyl-7-[3-(pyridin-4-yl)-1,2,4-oxadiazol-5-yl]-3,4-dihydro-2H-1-benzopyran-4-one] | < 75 | > 316 | > 75 | > 10000 |  |  |  |  | 
CCC1(CC)CC(=O)c2cc(-c3nc(-c4ccnc(NS(C)(=O)=O)c4)no3)ccc2O1 [Compound 556, N-(4-(5-(2,2-diethyl-4-oxochroman-6-yl)-1,2,4-oxadiazol-3-yl)pyridin-2-yl)methanesulfonamide] | > 75 | < 316 | < 75 | < 10000 |  |  |  |  | 
Cc1ccccc1-c1noc(-c2ccc3c(c2)nnn3C2CCC2)n1 [Compound 306, 1-cyclobutyl-5-[3-(2-methylphenyl)-1,2,4-oxadiazol-5-yl]-1H-1,2,3-benzotriazole] |  |  |  |  | > 75 | < 316 | < 75 | < 10000 | 
COc1ccc(-c2nsc(-c3ccc4[nH]ccc4c3)n2)cc1 [Compound 363, 5-[3-(4-methoxyphenyl)-1,2,4-thiadiazol-5-yl]-1H-indole] |  |  |  |  | < 75 | > 316 | < 75 | > 10000 | 
CCC1(CC)CC(=O)c2cc(-c3nc(-c4cncnc4)no3)ccc2O1 [Compound 620, 2,2-diethyl-6-(3-(pyrimidin-5-yl)-1,2,4-oxadiazol-5-yl)chroman-4-one] | < 75 | < 316 | > 75 | < 10000 |  |  |  |  | 
N#Cc1cc(-c2nnc(-c3ccc4c(c3)CCC(=O)N4)o2)ccc1NCC(F)F [Compound 477, 2-[(2,2-difluoroethyl)amino]-5-[5-(2-oxo-1,2,3,4-tetrahydro-quinolin-6-yl)-1,3,4-oxadiazol-2-yl]benzonitrile] | > 75 | < 316 | < 75 | < 10000 |  |  |  |  | 
CC(C)n1ccc2cc(-c3noc(-c4ccncc4F)n3)ccc21 [Compound 399, 5-(3-fluoropyridin-4-yl)-3-(1-isopropyl-1H-indol-5-yl)-1,2,4-oxadiazole] | > 75 | < 316 | < 75 | < 10000 |  |  |  |  | 
CC(C)n1nnc2cc(-c3nc(-c4cncnc4)no3)ccc21 [Compound 249, 1-(propan-2-yl)-5-[3-(pyrimidin-5-yl)-1,2,4-oxadiazol-5-yl]-1H-1,2,3-benzotriazole] |  |  |  |  | > 75 | > 316 | < 75 | > 10000 | 
CC(C)Nc1ccc(-c2nnc(-c3ccc4ncn(C)c4c3)o2)cc1C#N [Compound 579, 5-[5-(1-methyl-1H-1,3-benzodiazol-6-yl)-1,3,4-oxadiazol-2-yl]-2-[(propan-2-yl)amino]benzonitrile] | > 75 | < 316 | > 75 | < 10000 |  |  |  |  | 
Cc1nccnc1-c1nc(-c2ccc3c(c2)nnn3CC(C)(C)CO)no1 [Compound 540, 2,2-dimethyl-3-(5-(5-(3-methylpyrazin-2-yl)-1,2,4-oxadiazol-3-yl)-1H-benzo[d] [1,2,3]triazol-1-yl)propan-1-ol] | < 75 | > 316 | < 75 | > 10000 |  |  |  |  | 
COc1ccccc1-c1noc(-c2ccc3c(c2)NC(=O)CN3)n1 [Compound 614, 7-[3-(2-methoxyphenyl)-1,2,4-oxadiazol-5-yl]-1,2,3,4-tetrahydro-quinoxalin-2-one] | > 75 | > 316 | < 75 | > 10000 |  |  |  |  | 
Cc1ccccc1-c1noc(-c2ccc3c(c2)CCC(=O)N3C)n1 [Compound 367, 1-methyl-6-[3-(2-methyl-phenyl)-1,2,4-oxadiazol-5-yl]-1,2,3,4-tetrahydroquinolin-2-one] |  |  |  |  | < 75 | > 316 | < 75 | > 10000 | 
COc1ccc(-c2nc(-c3ccc4c(c3)nnn4CC(C)(C)CO)no2)c(C)c1 [Compound 523, 3-(5-(5-(4-methoxy-2-methylphenyl)-1,2,4-oxadiazol-3-yl)-1H-benzo[d][1,2,3]triazol-1-yl)-2,2-dimethyl-propan-1-ol] | > 75 | > 316 | > 75 | > 10000 |  |  |  |  | 
CCC1(CC)CC(=O)c2cc(-c3nc(-c4cccnc4F)no3)ccc2O1 [Compound 547, 2,2-diethyl-6-(3-(2-fluoropyridin-3-yl)-1,2,4-oxadiazol-5-yl)chroman-4-one] | > 75 | < 316 | > 75 | < 10000 |  |  |  |  | 
COc1cc(NC(C)=O)ccc1-c1noc(-c2ccc3nonc3c2)n1 [Compound 533, N-{4-[5-(2,1,3-benzoxadiazol-5-yl)-1,2,4-oxadiazol-3-yl]-3-methoxy-phenyl}acetamide] | < 75 | > 316 | < 75 | > 10000 |  |  |  |  | 
CC(C)c1cc(-c2nc(-c3ccc4c(c3)nnn4C(C)C)no2)ccn1 [Compound 167, 3-(1-isopropyl-1H-benzo[d][1,2,3]triazol-5-yl)-5-(2-isopropyl-pyridin-4-yl)-1,2,4-oxadiazole] |  |  |  |  | < 75 | > 316 | < 75 | > 10000 | 
CC(C)n1ccc2nc(-c3nc(-c4ccccc4Br)cs3)ccc21 [Compound 412, 4-(2-bromophenyl)-2-(1-isopropyl-1H-pyrrolo[3,2-b]pyridin-5-yl)thiazole] | > 75 | > 316 | < 75 | > 10000 |  |  |  |  | 
CCCn1nnc2cc(-c3nc(-c4cccc(C)c4)no3)ccc21 [Compound 54, 5-[3-(3-methylphenyl)-1,2,4-oxadiazol-5-yl]-1-propyl-1H-1,2,3-benzotriazole] |  |  |  |  | < 75 | > 316 | > 75 | > 10000 | 
Cc1cccc(-c2nc(-c3ccc4c(c3)nnn4C3CCCC3)no2)c1 [Compound 273, 3-(1-cyclopentyl-1H-benzo[d][1,2,3]triazol-5-yl)-5-(m-tolyl)-1,2,4-oxadiazole] |  |  |  |  | < 75 | > 316 | < 75 | > 10000 | 
